Laboratory results published in patent US20150297652A1, “COMPOSITIONS AND METHODS FOR THEIR DERMATOLOGICAL USE” (VITA NATURALE, LLC, priority 2012, published 2015).

Columns and labels:
chronic scalp dermatitis = assay: Topical treatment of chronic scalp dermatitis (Subject 3); format: in vivo, human; settings: past treatment of the scalp with clobetasol 0.05% solution
Method: (§1) A topical composition of the present invention, referred to herein as Composition 1, comprising as active ingredients Albizzia lebbeck (1%), schisandra chinensis (0.1%), and ophiopogon japonicus (2%), as well as petrolatum, water, glycerin, sodium hyaluronate, dimethicone, glyceryl stearate, acrylates, disodium EDTA, capric triglyceride, propanediol, phenoxyethanol, and triethanolamine, was prepared and administered to subjects as follows:
Subject 3 suffered from chronic scalp dermatitis characterized by persistent severe itching and scaling of the scalp. […] Untreated areas were persistently itchy and scaly.

chronic eyelid eczema = assay: Topical treatment of chronic eyelid eczema (Subject 1); format: in vivo, human; settings: previously treated with emollients and hydrocortisone
Method: as §1, with “follows: Subject 1 suffered from chronic eyelid eczema characterized by persistent severe itching and scaling of the eyelids.” for “follows:”

Compound | adverse side effects (chronic scalp dermatitis) | improvement with previous treatment (chronic eyelid eczema)
C[C@H]1C[C@H]2[C@@H]3CCC4=CC(=O)C=C[C@]4(C)[C@@]3(F)[C@@H](O)C[C@]2(C)[C@@]1(O)C(=O)CCl [clobetasol] | adverse side effects including acne and skin atrophy | 
C[C@]12CCC(=O)C=C1CC[C@@H]1[C@@H]2[C@@H](O)C[C@@]2(C)[C@H]1CC[C@]2(O)C(=O)CO [hydrocortisone] |  | minimal improvement
